For 13 compounds, Papp results are on record in US20230096766A1, “AMINO ACID HAVING FUNCTIONAL GROUP CAPABLE OF INTERMOLECULAR HYDROGEN BONDING, PEPTIDE COMPOUND CONTAINING SAME AND METHOD FOR PRODUCTION THEREOF” (Chugai Seiyaku Kabushiki Kaisha, priority 2018, published 2023).

In general, Papp refers to a coefficient for how fast a substance crosses the barrier. Low values mean poor permeation, high ones ready permeation.

*1 amine or outer side, *2 acyl side, *3 side chain or, on linkers, in order; H or OH if unused. Where a SMILES comes first, the peptide text is derived from it. Bridges are numbered along the chain shown (N, C = ends). [ ]: non-standard residue; d: D form. The star is where a group is joined. NMeHph(3-OMe-4-CONHMe) = CNC(=O)c1ccc(CC[C@H](NC)C(=O)O)cc1OC; hPhe(3-OMe,4-CONHMe) = CNC(=O)c1ccc(CC[C@H](N)C(=O)O)cc1OC; Phe(4-COOH) = N[C@@H](Cc1ccc(C(=O)O)cc1)C(=O)O; X11 = CNC(=O)c1ccc(CCN(CC(=O)[*:2])[*:1])cc1OC; NMePhe(3-Cl) = CN[C@@H](Cc1cccc(Cl)c1)C(=O)O; X12 = O=C([C@H](CCCC(O)C(F)(F)F)N[*:1])[*:2]; Tyr(3-F) = N[C@@H](Cc1ccc(O)c(F)c1)C(=O)O; Tyr(3-OMe) = COc1cc(C[C@H](N)C(=O)O)ccc1O; X9 = O=C([C@@H](CN[*:1])COCCO)[*:2]; NMeF = CN[C@@H](Cc1ccccc1)C(=O)O; NMeGABA = CN(CCCC(=O)[*:2])[*:1]; NMeI = CC[C@H](C)[C@H](NC)C(=O)O; Butyl(3-Me,3-OH) = CC(C)(O)CC*; NMeL = CN[C@@H](CC(C)C)C(=O)O; Propyl(2R-OH) = C[C@@H](O)C*; NMeV = CN[C@H](C(=O)O)C(C)C; NMeAbu = CC[C@H](NC)C(=O)O; NMeA = CN[C@@H](C)C(=O)O; Piperidide = C1CCN(*)CC1; CH2CMe2OH = CC(C)(O)C*; NBuGly = CCCCNCC(=O)O; NPrGly = CCCNCC(=O)O; N(OH)Me = CN(O)*; Sar = CNCC(=O)O; tBu = CC(C)(C)*

The nature of the first series: in vitro. To be noted: human, Caco-2, Caco-2 (cm/sec).
`CCCCN1CC(=O)N(C)[C@@H](Cc2ccccc2)C(=O)N(C)[C@@H](CC(C)C)C(=O)N[C@@H](CC(C)C)C(=O)N(C)[C@@H](CC(C)C)C(=O)N[C@H](C(=O)N2CCCCC2)CC(=O)N(C)CC(=O)N(C)[C@@H](CC(C)C)C(=O)N[C@@H](CCc2ccc(C(=O)NC)c(OC)c2)C(=O)N(C)[C@@H](CC)C(=O)N[C@@H]([C@@H](C)O)C1=O` [AP206] ([Sar][NMeL][hPhe(3-OMe,4-CONHMe)][NMeAbu]T[NBuGly][NMeF][NMeL]L[NMeL]D-Piperidide; lactam N-11) yielded a Papp of 0.86 ×10⁻⁶ cm/s. As to `CC[C@H]1C(=O)N[C@@H]([C@@H](C)O)C(=O)N(C)CC(=O)N(C)[C@@H](Cc2ccccc2)C(=O)N(C)[C@@H](CC(C)C)C(=O)N[C@@H](COC(C)(C)C)C(=O)N(C)[C@@H](CC(C)C)C(=O)N[C@H](C(=O)N2CCCCC2)CC(=O)N(CCc2ccc(C(=O)NC)c(OC)c2)CC(=O)N(C)[C@@H](CC(C)C)C(=O)N[C@@H](CC(C)C)C(=O)N1C` [AP219] ([X11][NMeL]L[NMeAbu]T[Sar][NMeF][NMeL]S(tBu)[NMeL]D-Piperidide; lactam N-11), the apparent permeability (Papp) was determined as 1.3 ×10⁻⁶ cm/s.

For the compound `CCCCN1CC(=O)N(C)[C@@H](Cc2ccccc2)C(=O)N(C)[C@@H](CC(C)C)C(=O)N[C@@H](COC(C)(C)C)C(=O)N(C)[C@@H](CC(C)C)C(=O)N[C@H](C(=O)N2CCCCC2)CC(=O)N(C)CC(=O)N(C)[C@@H](Cc2cccc(Cl)c2)C(=O)N[C@@H](COC[C@@H](C)O)C(=O)N(C)[C@@H](CC(C)C)C(=O)N[C@@H]([C@@H](C)O)C1=O` [AP77] ([Sar][NMePhe(3-Cl)]S(Propyl(2R-OH))[NMeL]T[NBuGly][NMeF][NMeL]S(tBu)[NMeL]D-Piperidide; lactam N-11), the Papp is 1 ×10⁻⁶ cm/s. Take `CCCCN1CC(=O)N(C)[C@@H](CC(C)C)C(=O)N(C)[C@@H](CC(C)C)C(=O)N[C@@H](COC(C)(C)C)C(=O)N(C)[C@@H](CC(C)C)C(=O)N[C@H](C(=O)N2CCCCC2)CC(=O)N(C)CC(=O)N(C)[C@@H](Cc2cccc(Cl)c2)C(=O)N[C@@H](Cc2ccc(C(=O)N(C)O)cc2)C(=O)N(C)[C@@H](CC(C)C)C(=O)N[C@@H]([C@@H](C)O)C1=O` [AP254] ([Sar][NMePhe(3-Cl)][Phe(4-COOH)](N(OH)Me)[NMeL]T[NBuGly][NMeL][NMeL]S(tBu)[NMeL]D-Piperidide; lactam N-11): the Papp is 0.15 ×10⁻⁶ cm/s. Compound `CCCN1CC(=O)N(C)[C@@H](Cc2ccccc2)C(=O)N[C@@H]([C@@H](C)CC)C(=O)N(C)[C@@H](CC(C)C)C(=O)N[C@@H]([C@@H](C)O)C(=O)N(C)CC(=O)N(C)[C@@H](Cc2ccccc2)C(=O)N(C)[C@@H](CC(C)C)C(=O)N[C@@H](COCCC(C)(C)O)C(=O)N(C)[C@@H](CC(C)C)C(=O)N[C@H](C(=O)N2CCCCC2)CC1=O` [AP59] ([NPrGly][NMeF]I[NMeL]T[Sar][NMeF][NMeL]S(Butyl(3-Me,3-OH))[NMeL]D-Piperidide; lactam N-11) displayed a Papp of 0.78 ×10⁻⁶ cm/s. The same measure, in the same setting: under `CCCCN1CC(=O)N(C)[C@@H](Cc2ccccc2)C(=O)N(C)[C@@H](CC(C)C)C(=O)N[C@@H](Cc2ccc(O)c(OC)c2)C(=O)N(C)[C@@H](CC(C)C)C(=O)N[C@H](C(=O)N2CCCCC2)CC(=O)N(C)CC(=O)N(C)[C@@H](CC(C)C)C(=O)N[C@@H]([C@@H](C)CC)C(=O)N(C)[C@@H](CC(C)C)C(=O)N[C@@H]([C@@H](C)O)C1=O` [Compound E08] ([Sar][NMeL]I[NMeL]T[NBuGly][NMeF][NMeL][Tyr(3-OMe)][NMeL]D-Piperidide; lactam N-11) stands 0.12 ×10⁻⁶ cm/s; under `CC[C@H]1C(=O)N(C)[C@@H](Cc2ccccc2)C(=O)N[C@@H](C)C(=O)N(C)[C@@H](CC(C)C)C(=O)N(C)[C@@H](CC(C)C)C(=O)N[C@@H]([C@@H](C)O)C(=O)N(CCc2ccc(C(=O)NC)c(OC)c2)CC(=O)N(C)[C@@H](CC(C)C)C(=O)N[C@H](C(=O)N2CCCCC2)CC(=O)N(C)[C@@H](C(C)C)C(=O)N[C@@H](CC(C)C)C(=O)N1C` [AP217] ([NMeV]L[NMeAbu][NMeF]A[NMeL][NMeL]T[X11][NMeL]D-Piperidide; lactam N-11), 1 ×10⁻⁶ cm/s; under `CC(C)C[C@@H]1NC(=O)[C@H](CC(C)C)N(C)C(=O)[C@H](Cc2cccc(Cl)c2)N(C)C(=O)[C@H](COCCO)CNC(=O)[C@H](CC(C)C)N(C)C(=O)CCCN(C)C(=O)C[C@@H](C(=O)N2CCCCC2)NC(=O)[C@H](CC(C)C)N(C)C(=O)[C@H](CC(C)C)N(C)C(=O)[C@H]([C@@H](C)O)NC(=O)[C@H](CC(C)C)N(C)C1=O` [AP129] ([NMeGABA][NMeL][X9][NMePhe(3-Cl)][NMeL]L[NMeL]T[NMeL][NMeL]D-Piperidide; lactam N-11), 0.46 ×10⁻⁶ cm/s. For the compound `CC[C@H](C)[C@@H]1NC(=O)[C@H](CC(C)C)N(C)C(=O)CCCN(C)C(=O)C[C@@H](C(=O)N2CCCCC2)NC(=O)[C@H](CC(C)C)N(C)C(=O)[C@H](CCc2ccc(C(=O)NC)c(OC)c2)N(C)C(=O)[C@H]([C@@H](C)O)NC(=O)[C@H](CC(C)C)N(C)C(=O)[C@H](COC(C)(C)C)NC(=O)[C@H](CC(C)C)N(C)C(=O)[C@H](Cc2ccccc2)N(C)C1=O` [AP228] ([NMeGABA][NMeL]I[NMeF][NMeL]S(tBu)[NMeL]T[NMeHph(3-OMe-4-CONHMe)][NMeL]D-Piperidide; lactam N-11), the Papp is 0.84 ×10⁻⁶ cm/s. Take `CC[C@H](C)[C@@H]1NC(=O)[C@H](CC(C)C)N(C)C(=O)CCCN(C)C(=O)C[C@@H](C(=O)N2CCCCC2)NC(=O)[C@H](CC(C)C)N(C)C(=O)[C@H](C)N(C)C(=O)[C@H](Cc2c[nH]c3ccccc23)NC(=O)[C@H](CC(C)C)N(C)C(=O)[C@H](COC(C)(C)C)NC(=O)[C@H](CC(C)C)N(C)C(=O)[C@H](CC(C)C)N(C)C1=O` [pd110] ([NMeGABA][NMeL]I[NMeL][NMeL]S(tBu)[NMeL]W[NMeA][NMeL]D-Piperidide; lactam N-11): the Papp was found to be 0.29 ×10⁻⁶ cm/s. For the compound `CC(C)C[C@@H]1NC(=O)[C@H](CC(C)C)N(C)C(=O)[C@H](Cc2ccccc2)N(C)C(=O)CN(C)C(=O)[C@H]([C@@H](C)O)NC(=O)[C@H](CC(C)C)N(C)C(=O)[C@H](Cc2ccc(O)c(F)c2)NC(=O)[C@H](CC(C)C)N(C)C(=O)CN(C)C(=O)C[C@@H](C(=O)N2CCCCC2)NC(=O)[C@H](CC(C)C)N(C)C1=O` [pd123] ([Sar][NMeL][Tyr(3-F)][NMeL]T[Sar][NMeF][NMeL]L[NMeL]D-Piperidide; lactam N-11), the Papp was determined as 0.44 ×10⁻⁶ cm/s. Turning to `CCCN1CC(=O)N(C)[C@@H](CC(C)C)C(=O)N[C@H](C(=O)N2CCCCC2)CC(=O)N(C)[C@@H](C)C(=O)N[C@@H](CC(C)C)C(=O)N(C)[C@@H](CC(C)C)C(=O)N(C)[C@@H](Cc2ccccc2)C(=O)N[C@@H](COCC(C)(C)O)C(=O)N(C)[C@@H](Cc2ccccc2)C(=O)N(C)[C@@H]([C@@H](C)CC)C(=O)N[C@@H]([C@@H](C)O)C1=O` [AP06] ([NMeA]L[NMeL][NMeF]S(CH2CMe2OH)[NMeF][NMeI]T[NPrGly][NMeL]D-Piperidide; lactam N-11), the apparent permeability coefficient (Papp) was found to be 0.033 ×10⁻⁶ cm/s.

Staying with this series, now noted: human, Caco-2, Caco-2 (membrane permeability).
The compound `CCCCN1CC(=O)N(C)[C@@H](Cc2ccccc2)C(=O)N(C)[C@@H](CC(C)C)C(=O)N[C@@H](COC(C)(C)C)C(=O)N(C)[C@@H](CC(C)C)C(=O)N[C@H](C(=O)N2CCCCC2)CC(=O)N(C)CC(=O)N(C)[C@@H](Cc2cccc(Cl)c2)C(=O)N[C@@H](CCCC(O)C(F)(F)F)C(=O)N(C)[C@@H](CC(C)C)C(=O)N[C@@H]([C@@H](C)O)C1=O` (stereo partly drawn) [Compound D06] ([Sar][NMePhe(3-Cl)][X12][NMeL]T[NBuGly][NMeF][NMeL]S(tBu)[NMeL]D-Piperidide; lactam N-11) gave a Papp of 0.23 ×10⁻⁶ cm/s.
